Results taken from patent US20110218188A1, “SUBSTITUTED (PYRIDYL)-AZINYLAMINE DERIVATIVES AS FUNGICIDES” (priority 2008, published 2011).

Assay: Measurement of logP values by HPLC on reversed phase columns (EEC directive 79/831 Annex V.A8)
Format: physicochemical
Details: pH 2.3

Row | logP [b] | Structure (SMILES)
1 | 2.76[b] | COC1CCCN(C(=O)c2cc(-c3ncnc(Nc4cccc(Cl)c4)n3)ccn2)C1 (centres unmarked) [Example B179]
2 | 2.51[b] | CCCN(CCO)C(=O)c1cc(-c2ncnc(Nc3cccc(Cl)c3)n2)ccn1 [Example B181]

Same assay, conditions: pH 2.7

Row | logP | chromatographic logP | Structure (SMILES)
3 | 3.48 | – | CC1CCCN(C(=O)c2cc(-c3ncnc(Nc4cccc(Cl)c4)n3)ccn2)C1 (centres unmarked) [Example B135]
4 | 2.04 | – | CN(CCO)C(=O)c1cc(-c2ncnc(Nc3cccc(Cl)c3)n2)ccn1 [Example B136]
5 | 3.78 | – | CC1CCCN(C(=O)c2cc(-c3ncnc(Nc4cccc(Cl)c4)n3)ccn2)C1C (centres unmarked) [Example B137]
6 | 3.46 | – | O=C(c1cc(-c2ncnc(Nc3cccc(Cl)c3)n2)ccn1)N1CCCCCC1 [Example B138]
7 | 3.8 | – | CCC1CCCCN1C(=O)c1cc(-c2ncnc(Nc3cccc(Cl)c3)n2)ccn1 (centres unmarked) [Example B139]
8 | 2.2 | – | O=C(c1cc(-c2ncnc(Nc3cccc(Cl)c3)n2)ccn1)N1CCCC(O)C1 (centres unmarked) [Example B140]
9 | 3.39 | – | CC1CCCCN1C(=O)c1cc(-c2ncnc(Nc3cccc(Cl)c3)n2)ccn1 (centres unmarked) [Example B142]
10 | 3.67 | – | C=CCN(CC=C)C(=O)c1cc(-c2ncnc(Nc3cccc(Cl)c3)n2)ccn1 [Example B143]
11 | 3.89 | – | CN(C(=O)c1cc(-c2ncnc(Nc3cccc(Cl)c3)n2)ccn1)C1CCCCC1 [Example B144]
12 | 2.3 | – | O=C(c1cc(-c2ncnc(Nc3cccc(Cl)c3)n2)ccn1)N1CCCC(CO)C1 (centres unmarked) [Example B145]
13 | 3.87 | – | CC(C)CCN(C)C(=O)c1cc(-c2ncnc(Nc3cccc(Cl)c3)n2)ccn1 [Example B146]
14 | 3.83 | – | CC1(C)CCCN(C(=O)c2cc(-c3ncnc(Nc4cccc(Cl)c4)n3)ccn2)C1 [Example B147]
15 | 3.67 | – | CC(C)=CCN(C)C(=O)c1cc(-c2ncnc(Nc3cccc(Cl)c3)n2)ccn1 [Example B148]
16 | 3.51 | – | CN(C(=O)c1cc(-c2ncnc(Nc3cccc(Cl)c3)n2)ccn1)C1CCCC1 [Example B149]
17 | 2.4 | – | CN(C)C(=O)c1cc(-c2ncnc(Nc3cccc(Cl)c3)n2)ccn1 [Example B150]
18 | 3.23 | – | CC1CCCN1C(=O)c1cc(-c2ncnc(Nc3cccc(Cl)c3)n2)ccn1 (centres unmarked) [Example B152]
19 | 3.11 | – | O=C(c1cc(-c2ncnc(Nc3cccc(Cl)c3)n2)ccn1)N1CC=CCC1 [Example B153]
20 | 3.96 | – | CC1CC(C)CN(C(=O)c2cc(-c3ncnc(Nc4cccc(Cl)c4)n3)ccn2)C1 (centres unmarked) [Example B155]
21 | 3.67 | – | C=C(C)CN(CC)C(=O)c1cc(-c2ncnc(Nc3cccc(Cl)c3)n2)ccn1 [Example B156]
22 | 2.69 | – | CCN(C)C(=O)c1cc(-c2ncnc(Nc3cccc(Cl)c3)n2)ccn1 [Example B157]
23 | 2.96 | – | CC(C)N(C)C(=O)c1cc(-c2ncnc(Nc3cccc(Cl)c3)n2)ccn1 [Example B158]
24 | 3.89 | – | CCCCCN(C)C(=O)c1cc(-c2ncnc(Nc3cccc(Cl)c3)n2)ccn1 [Example B161]

Row | logP | chromatographic logP | Structure (SMILES)
25 | 2.04 | – | O=CN1CCN(C(=O)c2cc(-c3ncnc(Nc4cccc(Cl)c4)n3)ccn2)CC1 [Example B163]
26 | 2.25 | – | CCN(CCO)C(=O)c1cc(-c2ncnc(Nc3cccc(Cl)c3)n2)ccn1 [Example B164]
27 | 2.48 | – | O=C(c1cc(-c2ncnc(Nc3cccc(Cl)c3)n2)ccn1)N1CCCCC1CO (centres unmarked) [Example B165]
28 | 2.66 | – | CCN(CC(C)(C)O)C(=O)c1cc(-c2ncnc(Nc3cccc(Cl)c3)n2)ccn1 [Example B166]
29 | 3.09 | – | CCN(CC1CCCO1)C(=O)c1cc(-c2ncnc(Nc3cccc(Cl)c3)n2)ccn1 (centres unmarked) [Example B167]
30 | 4.13 | – | CCCN(C(=O)c1cc(-c2ncnc(Nc3cccc(Cl)c3)n2)ccn1)C(C)CC (centres unmarked) [Example B171]
31 | 2.04 | – | O=C(c1cc(-c2ncnc(Nc3cccc(Cl)c3)n2)ccn1)N1CCC(O)CC1 [Example B173]
32 | 2.45 | – | CC(C)N(CCO)C(=O)c1cc(-c2ncnc(Nc3cccc(Cl)c3)n2)ccn1 [Example B180]
33 | 2.4 | – | O=C(NCCCO)c1cc(-c2ncnc(Nc3cccc(Cl)c3)n2)ccn1 [Example B183]
34 | 1.5 | – | CN1CCN(C(=O)c2cc(-c3ncnc(Nc4cccc(Cl)c4)n3)ccn2)CC1 [Example B184]
35 | – | 2.13 | O=C(NO)c1cc(-c2ncnc(Nc3cccc(Cl)c3)n2)ccn1 [Example B185, 4-{4-[(3-chlorophenyl)amino]-1,3,5-triazin-2-yl}-N-hydroxypyridine-2-carboxamide]
36 | 3.09 | – | COCC(C1CC1)N(C)C(=O)c1cc(-c2ncnc(Nc3cccc(Cl)c3)n2)ccn1 (centres unmarked) [Example B188]
37 | 3.15 | – | COC(C)C(C)N(C)C(=O)c1cc(-c2ncnc(Nc3cccc(Cl)c3)n2)ccn1 (centres unmarked) [Example B189]
38 | 3.31 | – | O=C(NC1CC1)c1cc(-c2ncnc(Nc3ccc(F)c(Cl)c3)n2)ccn1 [Example B192]
39 | 3.19 | – | O=C(NCCCN1CCCCCC1=O)c1cc(-c2ncnc(Nc3ccc(F)c(Cl)c3)n2)ccn1 [Example B194]
40 | 3.89 | – | CCC(COC)NC(=O)c1cc(-c2ncnc(Nc3ccc(F)c(Cl)c3)n2)ccn1 (centres unmarked) [Example B195]
41 | 4.16 | – | CCC(C)NC(=O)c1cc(-c2ncnc(Nc3ccc(F)c(Cl)c3)n2)ccn1 (centres unmarked) [Example B197]
42 | 2.58 | – | CN(CCC#N)C(=O)c1cc(-c2ncnc(Nc3ccc(F)c(Cl)c3)n2)ccn1 [Example B201]
43 | 3.13 | – | CCN(CC)C(=O)c1cc(-c2ncnc(Nc3ccc(F)c(Cl)c3)n2)ccn1 [Example B202]
44 | 3.13 | – | CCCN(C)C(=O)c1cc(-c2ncnc(Nc3ccc(F)c(Cl)c3)n2)ccn1 [Example B203]
45 | 3.23 | – | CN(CC1CC1)C(=O)c1cc(-c2ncnc(Nc3ccc(F)c(Cl)c3)n2)ccn1 [Example B204]
46 | 2.47 | – | CN(C)C(=O)c1cc(-c2ncnc(Nc3ccc(F)c(Cl)c3)n2)ccn1 [Example B205]

Row | logP | chromatographic logP | Structure (SMILES)
47 | 3.46 | – | CC(C)CN(C)C(=O)c1cc(-c2ncnc(Nc3ccc(F)c(Cl)c3)n2)ccn1 [Example B206]
48 | 2.75 | – | CCN(C)C(=O)c1cc(-c2ncnc(Nc3ccc(F)c(Cl)c3)n2)ccn1 [Example B207]
49 | 3.33 | – | CCN(C)C(=S)c1cc(-c2ncnc(Nc3ccc(F)c(Cl)c3)n2)ccn1 [Example B209]
50 | 3.17 | – | CCN(C)C(=S)c1cc(-c2ncnc(Nc3cccc(SC)c3)n2)ccn1 [Example B223]
51 | 3.8 | – | COCC(C)NC(=O)c1cc(-c2ncnc(Nc3ccc(C)c(Cl)c3)n2)ccn1 (centres unmarked) [Example B225]
52 | 3.62 | – | Cc1ccc(Nc2ncnc(-c3ccnc(C(=O)NC4CC4)c3)n2)cc1Cl [Example B226]
53 | 3.48 | – | COCCNC(=O)c1cc(-c2ncnc(Nc3ccc(C)c(Cl)c3)n2)ccn1 [Example B227]
54 | 3.02 | – | CCN(C)C(=O)c1cc(-c2ncnc(Nc3ccc(C)c(Cl)c3)n2)ccn1 [Example B236]
55 | 2.1 | – | CN(CCC#N)C(=O)c1cc(-c2ncnc(Nc3cc(F)ccc3F)n2)ccn1 [Example B237]
56 | 2.9 | – | CC(C)CN(C)C(=O)c1cc(-c2ncnc(Nc3cc(F)ccc3F)n2)ccn1 [Example B238]
57 | 1.94 | – | COCc1cccc(Nc2ncnc(-c3ccnc(C(=O)N(C)CCC#N)c3)n2)c1 [Example B239]
58 | 2.48 | – | CCCN(C)C(=O)c1cc(-c2ncnc(Nc3cccc(COC)c3)n2)ccn1 [Example B241]
59 | 2.58 | – | COCc1cccc(Nc2ncnc(-c3ccnc(C(=O)N(C)CC4CC4)c3)n2)c1 [Example B242]
60 | 1.91 | – | COCc1cccc(Nc2ncnc(-c3ccnc(C(=O)N(C)C)c3)n2)c1 [Example B243]
61 | 2.66 | – | COCc1cccc(Nc2ncnc(-c3ccnc(C(=O)N(C)CC(C)C)c3)n2)c1 [Example B244]
62 | 2.17 | – | CCN(C)C(=O)c1cc(-c2ncnc(Nc3cccc(COC)c3)n2)ccn1 [Example B245]
63 | 2.42 | – | COCc1cccc(Nc2ncnc(-c3ccnc(C(=O)N(C)C(C)C)c3)n2)c1 [Example B246]
64 | 2.05 | – | COCCN(C)C(=O)c1cc(-c2ncnc(Nc3cccc(COC)c3)n2)ccn1 [Example B247]
65 | 2.66 | – | CCN(C)C(=S)c1cc(-c2ncnc(Nc3cccc(COC)c3)n2)ccn1 [Example B248]
66 | 3.12 | – | COCc1cccc(Nc2ncnc(-c3ccnc(C(=S)N(C)CC4CC4)c3)n2)c1 [Example B249]
67 | 3.05 | – | CCCN(C)C(=S)c1cc(-c2ncnc(Nc3cccc(COC)c3)n2)ccn1 [Example B250]
68 | 3.06 | – | CCN(C)C(=O)c1cc(-c2ncnc(Nc3cccc(S(F)(F)(F)(F)F)c3)n2)ccn1 [Example B252]

Row | Structure (SMILES) | logP | chromatographic logP
69 | CC1CCC(C)N1C(=O)c1cc(-c2ncnc(Nc3cccc(Cl)c3)n2)ccn1 (centres unmarked) [Example B141] | 3.64 | –
70 | CC(C)CN(C)C(=O)c1cc(-c2ncnc(Nc3cccc(Cl)c3)n2)ccn1 [Example B151] | 3.42 | –
71 | CCCN(CC1CC1)C(=O)c1cc(-c2ncnc(Nc3cccc(Cl)c3)n2)ccn1 [Example B159] | 3.94 | –
72 | CN(CC1CCCO1)C(=O)c1cc(-c2ncnc(Nc3cccc(Cl)c3)n2)ccn1 (centres unmarked) [Example B160] | 2.76 | –
73 | CCCCN(CC)C(=O)c1cc(-c2ncnc(Nc3cccc(Cl)c3)n2)ccn1 [Example B162] | 3.87 | –
74 | COC1CCN(C(=O)c2cc(-c3ncnc(Nc4cccc(Cl)c4)n3)ccn2)CC1 [Example B169] | 2.68 | –
75 | N#CC1CCN(C(=O)c2cc(-c3ncnc(Nc4cccc(Cl)c4)n3)ccn2)CC1 [Example B170] | 2.59 | –
76 | COCCN(C)C(=O)c1cc(-c2ncnc(Nc3cccc(Cl)c3)n2)ccn1 [Example B172] | 2.57 | –
77 | CON(C)C(=O)c1cc(-c2ncnc(Nc3cccc(Cl)c3)n2)ccn1 [Example B186] | 2.59 | –
78 | Clc1cccc(Nc2ncnc(-c3ccnc(C4=NOCCO4)c3)n2)c1 [Example B187] | 2.63 | –
79 | CCN(C)C(=O)c1cc(-c2ncnc(Nc3cccc(SC)c3)n2)ccn1 [Example B222] | 2.6 | –
80 | CCN(CC)C(=O)c1cc(-c2ncnc(Nc3cccc(COC)c3)n2)ccn1 [Example B240] | 2.48 | –
